Experiments:
L6-myotubes [1] = assay: Glucose uptake in differentiated L6-myotubes (Biological Example 2); type: cell-based; settings: for Emax at 10 µM: read-out: Biological example 2 (GU)
Procedure, shortened: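 Uptake was quantified as radioactivity in 0.2 M NaOH lysates after a 10 min pulse of 50 nM ^3H-2-deoxyglucose. The pulse followed two agonist exposures at 1×10^−5 M final (isoprenaline or test compound): 1 h 40 min, then 20 min in glucose-free medium after washing. L6 myotubes had been starved overnight in medium with 0.5% fatty-acid-free BSA.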

L6-myotubes [2] = assay: Measurement of intracellular cAMP levels in differentiated L6-myotubes (Biological Example 3); type: cell-based; settings: for Emax at 10 µM: 0.25 h
Procedure, shortened: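 Intracellular cAMP quantified by AlphaScreen after ethanol extraction and lysis of L6 myotubes. Cells were serum-starved overnight, then exposed for 15 min to compound (final 1×10^−5 M) or isoprenaline in IBMX-containing (1 mM) HBSS buffer, pH 7.4.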

[3] = glucose uptake in differentiated L6-myotubes, compound at 10 μM, activity relative to isoproterenol at 10 μM
[4] = intracellular cAMP in differentiated L6-myotubes, compound at 10 μM, activity relative to isoproterenol at 10 μM
[5] = glucose uptake, compound at 10 μM relative to isoproterenol at 10 μM
[6] = intracellular cAMP, compound at 10 μM relative to isoproterenol at 10 μM

Compound CC1(C)C[C@H]([C@@H](O)c2ccccc2F)N1 [Compound 203, (S)-[(R)-4,4-dimethyl-2-azetidinyl](o-fluorophenyl)methanol] has an Emax at 10 µM (L6-myotubes [1]; [3]) of 25 to 50% and an Emax at 10 µM (L6-myotubes [2]; [4]) of under 25%.

With CCC[C@H]1CCC[C@H]([C@@H](O)c2cccc(O)c2)N1 [Compound 155] the Emax at 10 µM (L6-myotubes [1]; [5]) was under 25% and the Emax at 10 µM (L6-myotubes [2]; [6]) was under 25%.

With CC12CC(C1)[C@@H]([C@@H](O)c1ccccc1F)N2 [Compound 211, (S)-{(S)-1-methyl-2-azabicyclo[[2.1.1]]hex-3-yl}(o-fluorophenyl)methanol] the Emax at 10 µM (L6-myotubes [1]; [3]) was over 75% and the Emax at 10 µM (L6-myotubes [2]; [4]) was under 25%.

CO[C@H]1CC[C@H](C[C@@H]2CC[C@H]([C@@H](O)c3cncc(F)c3)N2)CC1 [Compound 332] was tested, and the Emax at 10 µM (L6-myotubes [1]; [3]) was 25 to 50% and the Emax at 10 µM (L6-myotubes [2]; [4]) was under 25%.

With CCCCNC[C@H](O)c1cnc(NC(=O)C(C)C)s1 [Compound 74, N-{5-[(S)-2-(butylamino)-1-hydroxyethyl]-1,3-thiazol-2-yl}2-methylpropionamide] the Emax at 10 µM (L6-myotubes [1]; [5]) was 25 to 50% and the Emax at 10 µM (L6-myotubes [2]; [6]) was under 25%.

O[C@@H](CNCCC[C@H]1CC[C@H](O)CC1)c1cncc(F)c1 [Compound 305, (R)-1-(5-fluoro-3-pyridyl)-2-{3-[(1r,4S)-4-hydroxycyclohexyl]propylamino}-1-ethanol] was tested, and the Emax at 10 µM (L6-myotubes [1]; [3]) was 25 to 50% and the Emax at 10 µM (L6-myotubes [2]; [4]) was under 25%.

Compound CC1(C)C[C@@H]([C@H](O)c2ccccc2F)N1 [Compound 202, (R)-[(S)-4,4-dimethyl-2-azetidinyl](o-fluorophenyl)methanol] has an Emax at 10 µM (L6-myotubes [1]; [3]) of under 25% and an Emax at 10 µM (L6-myotubes [2]; [4]) of under 25%.

With CC(C)(C[C@H]1CC[C@@H](S(N)(=O)=O)CC1)NC[C@H](O)c1cccc(F)c1 [Compound 517, (1S,4s)-4-{2-[(R)-2-(m-fluorophenyl)-2-hydroxyethylamino]-2-methylpropyl} cyclohexanesulfonamide] the Emax at 10 µM (L6-myotubes [1]; [3]) was 25 to 50% and the Emax at 10 µM (L6-myotubes [2]; [4]) was under 25%.

CC(=O)N[C@H]1CC[C@H](C(C)(C)NC[C@H](O)c2cncc(F)c2)CC1 [Compound 346, N-[(1R,4r)-4-{1-[(R)-2-(5-fluoro-3-pyridyl)-2-hydroxyethylamino]-1-methylethyl}cyclohexyl] acetamide] gave an Emax at 10 µM (L6-myotubes [1]; [3]) of over 75% and an Emax at 10 µM (L6-myotubes [2]; [4]) of under 25%.

CC(C)(C[C@H]1CC[C@@H](NS(=O)(=O)C(F)(F)F)CC1)NC[C@H](O)c1cncc(F)c1 [Compound 522] gave an Emax at 10 µM (L6-myotubes [1]; [3]) of over 75% and an Emax at 10 µM (L6-myotubes [2]; [4]) of under 25%.

With CS(=O)(=O)N(Cc1ccccc1)c1cccc(CC23CCC([C@H](O)c4cccc(F)c4)(CC2)N3)c1 [Compound 513] the Emax at 10 µM (L6-myotubes [1]; [3]) was 25 to 50% and the Emax at 10 µM (L6-myotubes [2]; [4]) was under 25%.

CC(C)(NC[C@H](O)c1cccc(F)c1)[C@H]1CC[C@H](O)CC1 [Compound 283, (R)-1-(m-fluorophenyl)-2-{1-methyl-1-[(1r,4R)-4-hydroxycyclohexyl]ethylamino}-1-ethanol] gave an Emax at 10 µM (L6-myotubes [1]; [3]) of 50 to 75% and an Emax at 10 µM (L6-myotubes [2]; [4]) of under 25%.

CCCCNC[C@H](O)c1ccc(F)c(O)c1 [Compound 85, (R)-2-(butylamino)-1-(4-fluoro-3-hydroxyphenyl)-1-ethanol] gave an Emax at 10 µM (L6-myotubes [1]; [5]) of over 75% and an Emax at 10 µM (L6-myotubes [2]; [6]) of under 25%.

CS(=O)(=O)N(Cc1ccccc1)[C@H]1CC[C@H](C[C@@H]2CC[C@H]([C@H](O)c3cccc(F)c3)N2)CC1 [Compound 502] showed an Emax at 10 µM (L6-myotubes [1]; [3]) of under 25% and an Emax at 10 µM (L6-myotubes [2]; [4]) of under 25%.

For CC(C)(C[C@H]1CC[C@@H](NS(C)(=O)=O)CC1)NC[C@@H](O)c1cccc(C#N)n1 [Compound 424, 6-[(R)-2-{1,1-dimethyl-2-[(1s,4S)-4-(mesylamino)cyclohexyl]ethylamino}-1-hydroxyethyl]-2-pyridinecarbonitrile], the Emax at 10 µM (L6-myotubes [1]; [3]) was 25 to 50% and the Emax at 10 µM (L6-myotubes [2]; [4]) was under 25%.

For CC(C)(CC[C@H]1CC[C@H](NS(C)(=O)=O)CC1)NC[C@H](O)c1cncc(F)c1 [Compound 362, (R)-2-{1,1-dimethyl-3-[(1r,4R)-4-(mesylamino)cyclohexyl]propylamino}-1-(5-fluoro-3-pyridyl)-1-ethanol], the Emax at 10 µM (L6-myotubes [1]; [3]) was 50 to 75% and the Emax at 10 µM (L6-myotubes [2]; [4]) was under 25%.

Work on CC(C)(C[C@H]1CC[C@@H](NS(C)(=O)=O)CC1)NC[C@H](O)c1cncc(F)c1 [Compound 468, (R)-2-{1,1-dimethyl-2-[(1s,4S)-4-(mesylamino)cyclohexyl]ethylamino}-1-(5-fluoro-3-pyridyl)-1-ethanol] yielded an Emax at 10 µM (L6-myotubes [1]; [3]) of over 75% and an Emax at 10 µM (L6-myotubes [2]; [4]) of under 25%.

In the case of CC(C)(C[C@H]1CC[C@H](NS(C)(=O)=O)CC1)NC[C@H](O)c1cccc(F)c1 [Compound 382], the Emax at 10 µM (L6-myotubes [1]; [3]) is reported as over 75% and the Emax at 10 µM (L6-myotubes [2]; [4]) is reported as 25 to 50%.

In the case of CS(=O)(=O)N(Cc1ccccc1)[C@H]1CC[C@@H](C[C@@H]2CC[C@H]([C@H](O)c3cccc(F)c3)N2)CC1 [Compound 508, (R)-[(2R,5S)-5-({(1s,4R)-4-[(benzyl)-N-mesylamino]cyclohexyl}methyl)-2-pyrrolidinyl](m-fluorophenyl)methanol], the Emax at 10 µM (L6-myotubes [1]; [3]) is reported as under 25% and the Emax at 10 µM (L6-myotubes [2]; [4]) is reported as under 25%.

CO[C@H]1CC[C@@H](CCCNC[C@H](O)c2cccc(F)c2)CC1 [Compound 258, (R)-1-(m-fluorophenyl)-2-{3-[(1s,4R)-4-methoxycyclohexyl]propylamino}-1-ethanol] gave an Emax at 10 µM (L6-myotubes [1]; [3]) of over 75% and an Emax at 10 µM (L6-myotubes [2]; [4]) of 50 to 75%.

CC(C)(C[C@H]1CC[C@H](S(N)(=O)=O)CC1)NC[C@H](O)c1cncc(F)c1 [Compound 518, (1R,4r)-4-{2-[(R)-2-(5-fluoro-3-pyridyl)-2-hydroxyethylamino]-2-methylpropyl} cyclohexanesulfonamide] showed an Emax at 10 µM (L6-myotubes [1]; [3]) of 50 to 75% and an Emax at 10 µM (L6-myotubes [2]; [4]) of under 25%.

Oc1ccc(C(O)CNCCC2CCCCC2)cc1 (centres unmarked) [Compound 16, 2-(2-cyclohexylethylamino)-1-(p-hydroxyphenyl)-1-ethanol] gave an Emax at 10 µM (L6-myotubes [1]; [5]) of 25 to 50% and an Emax at 10 µM (L6-myotubes [2]; [6]) of under 25%.

For CC(C)(C[C@H]1CC[C@@H](NS(=O)(=O)C(F)(F)F)CC1)NC[C@H](O)c1cccc(F)c1 [Compound 493, (R)-2-{1,1-dimethyl-2-[(1s,4S)-4-(trifluoromesylamino)cyclohexyl]ethylamino}-1-(m-fluorophenyl)-1-ethanol], the Emax at 10 µM (L6-myotubes [1]; [3]) was 25 to 50% and the Emax at 10 µM (L6-myotubes [2]; [4]) was under 25%.

CCC[C@H]1CCC[C@@H]([C@H](O)c2cccc(F)c2)N1 [Compound 120] was tested, and the Emax at 10 µM (L6-myotubes [1]; [5]) was 50 to 75% and the Emax at 10 µM (L6-myotubes [2]; [6]) was under 25%.

Compound CC(C)(C[C@H]1CC[C@H](NC(=O)OC(C)(C)C)CC1)NC[C@H](O)c1cccc(C(F)(F)F)n1 [Compound 459] has an Emax at 10 µM (L6-myotubes [1]; [3]) of over 75% and an Emax at 10 µM (L6-myotubes [2]; [4]) of under 25%.

Work on CCCCNCC(O)c1cc(Cl)c(N)c(Cl)c1 (centres unmarked) [Compound 29, 1-(4-amino-3,5-dichlorophenyl)-2-(butylamino)-1-ethanol] yielded an Emax at 10 µM (L6-myotubes [1]; [5]) of over 75% and an Emax at 10 µM (L6-myotubes [2]; [6]) of 25 to 50%.

Work on Cc1c(F)cccc1[C@@H](O)CNC(C)(C)C [Compound 150, (R)-2-(tert-butylamino)-1-(3-fluoro-2-tolyl)-1-ethanol] yielded an Emax at 10 µM (L6-myotubes [1]; [5]) of over 75% and an Emax at 10 µM (L6-myotubes [2]; [6]) of 25 to 50%.

With COc1ccc(C[C@H]2CC[C@H]([C@@H](O)c3cncc(F)c3)N2)cc1 [Compound 380, (S)-{(2R,5R)-5-[(p-methoxyphenyl)methyl]-2-pyrrolidinyl}(5-fluoro-3-pyridyl)methanol] the Emax at 10 µM (L6-myotubes [1]; [3]) was over 75% and the Emax at 10 µM (L6-myotubes [2]; [4]) was under 25%.

In the case of CC12CCC([C@H](O)c3cncc(F)c3)(CC1)N2 [Compound 185, (R)-(5-fluoro-3-pyridyl)(4-methyl-7-azabicyclo[[2.2.1]]hept-1-yl)methanol], the Emax at 10 µM (L6-myotubes [1]; [5]) is reported as over 75% and the Emax at 10 µM (L6-myotubes [2]; [6]) is reported as under 25%.

CCC[C@@H]1CC[C@H]([C@H](O)c2cncc(F)c2)N1 [Compound 160, (R)-[(2R,5R)-5-propyl-2-pyrrolidinyl](5-fluoro-3-pyridyl)methanol] was tested, and the “Biological example 2 (GU)” value (L6-myotubes [1]; [5]) was “+++ (If a compound at 10 μM shows activity of more than 75% of that of isoproterenol at 10 μM, the activity is denoted with +++)” and the Emax at 10 µM (L6-myotubes [2]; [6]) was under 25%.

Compound O[C@@H](c1cncc(F)c1)C12CCC(C/C=C/c3ccccc3)(CC1)N2 [Compound 529, (S)-{4-[(E)-3-phenyl-2-propenyl]-7-azabicyclo[[2.2.1]]hept-1-yl}(5-fluoro-3-pyridyl)methanol] has an Emax at 10 µM (L6-myotubes [1]; [3]) of 25 to 50% and an Emax at 10 µM (L6-myotubes [2]; [4]) of under 25%.

For CC(C)(CC[C@H]1CC[C@@H](O)CC1)NC[C@H](O)c1cccc(F)c1 [Compound 295, (R)-2-{1,1-dimethyl-3-[(1s,4R)-4-hydroxycyclohexyl]propylamino}-1-(m-fluorophenyl)-1-ethanol], the Emax at 10 µM (L6-myotubes [1]; [3]) was over 75% and the Emax at 10 µM (L6-myotubes [2]; [4]) was under 25%.

For CC1(C)C[C@@H]([C@H](O)c2cccc(F)c2)N1 [Compound 200, (R)-[(S)-4,4-dimethyl-2-azetidinyl](m-fluorophenyl)methanol], the Emax at 10 µM (L6-myotubes [1]; [3]) was under 25% and the Emax at 10 µM (L6-myotubes [2]; [4]) was under 25%.

With CC(C)(NC[C@H](O)c1cccc(F)c1)[C@H]1CC[C@@H](O)CC1 [Compound 284, (R)-1-(m-fluorophenyl)-2-{1-methyl-1-[(1s,4S)-4-hydroxycyclohexyl]ethylamino}-1-ethanol] the Emax at 10 µM (L6-myotubes [1]; [3]) was 50 to 75% and the Emax at 10 µM (L6-myotubes [2]; [4]) was under 25%.

Work on CC(C)(C[C@H]1CC[C@H](NC(=O)c2ccccc2)CC1)NC[C@H](O)c1cccc(F)c1 [Compound 384] yielded an Emax at 10 µM (L6-myotubes [1]; [3]) of over 75% and an Emax at 10 µM (L6-myotubes [2]; [4]) of over 75%.

With CCC[C@@H]1CC[C@H]([C@H](O)c2cncc(F)c2)N1 [Compound 161] the “Biological example 2 (GU)” value (L6-myotubes [1]; [5]) was “+ (if it is between 50 and 25% it is denoted with +)” and the “Biological example 3 (CAMP)” value (L6-myotubes [2]; [6]) was “− (if it less than 25% it is denoted with −)”.

CO[C@H]1CC[C@H](C[C@@H]2CC[C@H]([C@@H](O)c3cccc(F)c3)N2)CC1 [Compound 325, (S)-[(2R,5S)-5-{[(1r,4S)-4-methoxycyclohexyl]methyl}-2-pyrrolidinyl](m-fluorophenyl)methanol] gave an Emax at 10 µM (L6-myotubes [1]; [3]) of over 75% and an Emax at 10 µM (L6-myotubes [2]; [4]) of under 25%.

Reference: patent US20260216294A1, “BETA 2-ADRENERGIC RECEPTOR AGONISTS FOR TREATMENT OR PREVENTION OF MUSCLE WASTING” (ATROGI AB, priority 2023, published 2026)
